The target in the assay is T1, Vitamin D3 receptor (Homo sapiens) (UniProt P11473).
T1 sequence (whole entry): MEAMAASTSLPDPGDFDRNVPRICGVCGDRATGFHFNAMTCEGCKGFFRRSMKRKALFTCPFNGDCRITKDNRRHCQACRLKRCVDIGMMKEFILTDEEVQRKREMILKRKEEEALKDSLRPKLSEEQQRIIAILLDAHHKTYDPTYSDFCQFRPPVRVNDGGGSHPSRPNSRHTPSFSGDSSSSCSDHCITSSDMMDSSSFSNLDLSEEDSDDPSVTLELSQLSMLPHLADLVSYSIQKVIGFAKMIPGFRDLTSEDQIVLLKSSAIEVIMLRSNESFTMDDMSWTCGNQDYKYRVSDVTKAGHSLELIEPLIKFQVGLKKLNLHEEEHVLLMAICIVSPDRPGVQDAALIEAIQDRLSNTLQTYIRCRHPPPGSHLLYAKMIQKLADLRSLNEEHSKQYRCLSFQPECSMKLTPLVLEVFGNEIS
The experiment in a line: Induction of vitamin D receptor-mediated differentiation of human HL60 cells at 10^-6 M by NBT reduction method. Conditions: HL-60. Format: cell-based.

Calls of active or inactive are those of the source. The calls are words filed in the database; no cut-off is given here.

Take `CCC(O)(CC)CCCCC12CCC(COCCC(O)CCO)(CC1)CC2` (stereo unspecified): the result was Active.

Values taken from ChEMBL document CHEMBL1949597, “Novel vitamin D receptor ligands bearing a spherical hydrophobic core structure--comparison of bicyclic hydrocarbon derivatives with boron cluster derivatives” (Bioorg Med Chem Lett, 2012).
